# Data published in the supplement of paper PMC10307832.
# Legend:
# Assay in all cases: relative viability (nuclei count vs DMSO), 5 days (fraction); higher = more cells survive
# [1] = test system: EPLC-272H
# In short: (§1)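 Lung cancer cell lines were seeded in 1536-well plates and dosed by pin tool the next day, with either a single drug or a fixed anchor-drug dose combined with five library-drug doses (not always all listed) spaced in √10 steps. Five days later, one step fixed the cells and stained their nuclei (final 0.05% Triton X-100, 1% formaldehyde, 1 ug/ml Hoechst), and nuclei were counted on 4× images. Relative viability is the nuclei count in treated wells divided by the count in vehicle wells, and each value is the median of duplicate plates.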
# [2] = test system: HCC-78
# In short: as §1
# [3] = test system: CAL-12T
# In short: as §1
# [4] = test system: HCC-15
# In short: as §1
# [5] = test system: NCI-H441
# In short: as §1
# [6] = test system: ABC-1
# In short: as §1
# [7] = test system: NCI-H3122
# In short: as §1
# [8] = test system: LXF-289
# In short: as §1
# [9] = test system: UMC-11
# In short: as §1
# [10] = test system: NCI-H1975
# In short: as §1
# [11] = test system: COR-L 105
# In short: as §1
# [12] = test system: NCI-H1915
# In short: as §1
# [13] = test system: NCI-H2126
# In short: as §1
# [14] = test system: ChaGo-K-1
# In short: as §1
# [15] = test system: NCI-H322M
# In short: as §1
# [16] = test system: NCI-H358
# In short: as §1
# [17] = test system: NCI-H2023
# In short: as §1
# [18] = test system: HOP-62
# In short: as §1
# [19] = test system: NCI-H2085
# In short: as §1
# [20] = test system: NCI-H1755
# In short: as §1
# [21] = test system: EMC-BAC-2
# In short: as §1
# [22] = test system: NCI-H1666
# In short: as §1
structure (smiles),measurement,setting,value
CCN(CC)CCCCNc1ncc2cc(-c3cc(OC)cc(OC)c3)c(NC(=O)NC(C)(C)C)nc2n1 + C[C@@H](Oc1cc(-c2cnn(C3CCNCC3)c2)cnc1N)c1c(Cl)ccc(F)c1Cl [Crizotinib] (partner 1 µM),relative viability,[1]; first compound 0.01 µM,1.23
same,relative viability,[1]; first compound 0.1 µM,1.13
same,relative viability,[1]; first compound 0.3162 µM,1.04
same,relative viability,[1]; first compound 1 µM,0.917
same,relative viability,[2]; first compound 0.03162 µM,0.318
same,relative viability,[2]; first compound 0.1 µM,0.347
same,relative viability,[2]; first compound 0.3162 µM,0.368
same,relative viability,[2]; first compound 1 µM,0.299
same,relative viability,[3]; first compound 0.01 µM,0.809
same,relative viability,[3]; first compound 0.03162 µM,0.612
same,relative viability,[3]; first compound 0.1 µM,0.553
same,relative viability,[3]; first compound 0.3162 µM,0.666
same,relative viability,[3]; first compound 1 µM,0.533
same,relative viability,[4]; first compound 0.01 µM,0.919
same,relative viability,[4]; first compound 0.03162 µM,0.853
same,relative viability,[4]; first compound 0.1 µM,0.871
same,relative viability,[4]; first compound 0.3162 µM,1.25
same,relative viability,[4]; first compound 1 µM,0.699
same,relative viability,[5]; first compound 0.01 µM,0.676
same,relative viability,[5]; first compound 0.03162 µM,0.897
same,relative viability,[5]; first compound 0.1 µM,0.73
same,relative viability,[5]; first compound 0.3162 µM,0.886
same,relative viability,[5]; first compound 1 µM,0.762
same,relative viability,[6]; first compound 0.01 µM,1.53
same,relative viability,[6]; first compound 0.03162 µM,1.34
same,relative viability,[6]; first compound 0.1 µM,1.18
same,relative viability,[6]; first compound 0.3162 µM,1.09
same,relative viability,[6]; first compound 1 µM,0.905
same,relative viability,[7]; first compound 0.01 µM,0.273
same,relative viability,[7]; first compound 0.03162 µM,0.282
same,relative viability,[7]; first compound 0.1 µM,0.317
same,relative viability,[7]; first compound 0.3162 µM,0.291
same,relative viability,[7]; first compound 1 µM,0.279
same,relative viability,[8]; first compound 0.01 µM,0.836
same,relative viability,[8]; first compound 0.03162 µM,0.817
same,relative viability,[8]; first compound 0.1 µM,0.916
same,relative viability,[8]; first compound 0.3162 µM,0.824
same,relative viability,[8]; first compound 1 µM,0.696
same,relative viability,[9]; first compound 0.01 µM,0.691
same,relative viability,[9]; first compound 0.03162 µM,0.459
same,relative viability,[9]; first compound 0.1 µM,0.636
same,relative viability,[9]; first compound 0.3162 µM,0.805
same,relative viability,[9]; first compound 1 µM,0.554
same,relative viability,[10]; first compound 0.01 µM,1.35
same,relative viability,[10]; first compound 0.03162 µM,1.02
same,relative viability,[10]; first compound 0.1 µM,1.05
same,relative viability,[10]; first compound 0.3162 µM,0.94
same,relative viability,[10]; first compound 1 µM,0.82
same,relative viability,[11]; first compound 0.01 µM,0.795
same,relative viability,[11]; first compound 0.03162 µM,0.796
same,relative viability,[11]; first compound 0.1 µM,0.887
same,relative viability,[11]; first compound 0.3162 µM,0.777
same,relative viability,[11]; first compound 1 µM,0.658
same,relative viability,[12]; first compound 0.01 µM,1.1
same,relative viability,[12]; first compound 0.03162 µM,0.926
same,relative viability,[12]; first compound 0.1 µM,0.943
same,relative viability,[12]; first compound 0.3162 µM,1.03
same,relative viability,[12]; first compound 1 µM,0.935
same,relative viability,[13]; first compound 0.01 µM,1.08
same,relative viability,[13]; first compound 0.03162 µM,0.992
same,relative viability,[13]; first compound 0.1 µM,1.06
same,relative viability,[13]; first compound 0.3162 µM,1.08
same,relative viability,[13]; first compound 1 µM,1.04
same,relative viability,[14]; first compound 0.01 µM,1.24
same,relative viability,[14]; first compound 0.03162 µM,1.08
same,relative viability,[14]; first compound 0.1 µM,1.09
same,relative viability,[14]; first compound 0.3162 µM,1.32
same,relative viability,[14]; first compound 1 µM,1.06
same,relative viability,[15]; first compound 0.01 µM,0.977
same,relative viability,[15]; first compound 0.03162 µM,0.912
same,relative viability,[15]; first compound 0.1 µM,0.928
same,relative viability,[15]; first compound 0.3162 µM,1.06
same,relative viability,[15]; first compound 1 µM,0.935
same,relative viability,[16]; first compound 0.01 µM,0.639
same,relative viability,[16]; first compound 0.03162 µM,0.54
same,relative viability,[16]; first compound 0.1 µM,0.728
same,relative viability,[16]; first compound 0.3162 µM,0.671
same,relative viability,[16]; first compound 1 µM,0.469
same,relative viability,[17]; first compound 0.01 µM,0.646
same,relative viability,[17]; first compound 0.03162 µM,0.627
same,relative viability,[17]; first compound 0.1 µM,0.639
same,relative viability,[17]; first compound 0.3162 µM,0.725
same,relative viability,[17]; first compound 1 µM,0.655
same,relative viability,[18]; first compound 0.01 µM,0.967
same,relative viability,[18]; first compound 0.03162 µM,1.14
same,relative viability,[18]; first compound 0.1 µM,0.903
same,relative viability,[18]; first compound 0.3162 µM,1.08
same,relative viability,[18]; first compound 1 µM,1.08
same,relative viability,[19]; first compound 0.01 µM,0.983
same,relative viability,[19]; first compound 0.03162 µM,0.917
same,relative viability,[19]; first compound 0.1 µM,0.943
same,relative viability,[19]; first compound 0.3162 µM,0.895
same,relative viability,[19]; first compound 1 µM,0.817
same,relative viability,[20]; first compound 0.01 µM,0.928
same,relative viability,[20]; first compound 0.03162 µM,0.94
same,relative viability,[20]; first compound 0.1 µM,1.17
same,relative viability,[20]; first compound 0.3162 µM,0.984
same,relative viability,[20]; first compound 1 µM,0.892
same,relative viability,[21]; first compound 0.01 µM,0.851
same,relative viability,[21]; first compound 0.03162 µM,0.761
same,relative viability,[21]; first compound 0.1 µM,0.85
same,relative viability,[21]; first compound 0.3162 µM,0.839
same,relative viability,[21]; first compound 1 µM,0.735
same,relative viability,[22]; first compound 0.01 µM,1.17
same,relative viability,[22]; first compound 0.03162 µM,0.985
same,relative viability,[22]; first compound 0.1 µM,0.895
same,relative viability,[22]; first compound 0.3162 µM,1.02
same,relative viability,[22]; first compound 1 µM,1.09
